Test results taken from paper PMC11277489, “Novel Piperazine Derivatives of Vindoline as Anticancer Agents” (International Journal of Molecular Sciences, 2024).

Legend:
SF-295 = experiment: NCI60 one-dose screen (10 μM), CNS Cancer; assay type: cell-based; conditions: Homo sapiens; 10 μM; SF-295, CNS Cancer; read-out: Growth percent rate
COLO 205 = experiment: NCI60 one-dose screen (10 μM), Colon Cancer; assay type: cell-based, human; conditions: Homo sapiens; 10 μM; COLO 205, Colon Cancer; read-out: Growth percent rate
RXF 393 = experiment: NCI60 one-dose screen (10 μM), Renal Cancer; assay type: cell-based, human; conditions: Homo sapiens; 10 μM; RXF 393, Renal Cancer; read-out: Growth percent rate
MALME-3M = experiment: NCI60 one-dose screen (10 μM), Melanoma; assay type: cell-based; conditions: Homo sapiens; 10 μM; MALME-3M, Melanoma; read-out: Growth percent rate
IGROV1 = experiment: NCI60 one-dose screen (10 μM), Ovarian Cancer; assay type: cell-based; conditions: Homo sapiens, IGROV-1; 10 μM; IGROV1, Ovarian Cancer; read-out: Growth percent rate
HL-60(TB) = experiment: NCI60 one-dose screen (10 μM), Leukemia; assay type: cell-based; conditions: Homo sapiens; 10 μM; HL-60(TB), Leukemia; read-out: Growth percent rate
[1] = system: 60 human tumor cell lines (NCI60); experiment: NCI60 one-dose screen (10 μM), whole panel; assay type: cell-based; conditions: for activity at 10 µM: mean over 60 human cancer cell lines, read-out: Growth percent rate, Mean
A549/ATCC = experiment: NCI60 one-dose screen (10 μM), Non-small Cell Lung Cancer; assay type: cell-based; conditions: Homo sapiens; 10 μM; A549/ATCC, Non-small Cell Lung Cancer; read-out: Growth percent rate
786–0 = experiment: NCI60 one-dose screen (10 μM), Renal Cancer; assay type: cell-based; conditions: Homo sapiens; 10 μM; 786-0, Renal Cancer; read-out: Growth percent rate
K-562 = experiment: NCI60 one-dose screen (10 μM), Leukemia; assay type: cell-based; conditions: Homo sapiens, K562; 10 μM; K-562, Leukemia; read-out: Growth percent rate
U251 = experiment: NCI60 one-dose screen (10 μM), CNS Cancer; assay type: cell-based; conditions: Homo sapiens, U-251; 10 μM; U251, CNS Cancer; read-out: Growth percent rate
SNB-75 = experiment: NCI60 one-dose screen (10 μM), CNS Cancer; assay type: cell-based, human; conditions: Homo sapiens; 10 μM; SNB-75, CNS Cancer; read-out: Growth percent rate
UACC-257 = experiment: NCI60 one-dose screen (10 μM), Melanoma; assay type: cell-based; conditions: Homo sapiens; 10 μM; UACC-257, Melanoma; read-out: Growth percent rate
TK-10 = experiment: NCI60 one-dose screen (10 μM), Renal Cancer; assay type: cell-based; conditions: Homo sapiens; 10 μM; TK-10, Renal Cancer; read-out: Growth percent rate
DU-145 = experiment: NCI60 one-dose screen (10 μM), Prostate Cancer; assay type: cell-based; conditions: Homo sapiens; 10 μM; DU-145, Prostate Cancer; read-out: Growth percent rate
KM12 = experiment: NCI60 one-dose screen (10 μM), Colon Cancer; assay type: cell-based, human; conditions: Homo sapiens; 10 μM; KM12, Colon Cancer; read-out: Growth percent rate
HCT-15 = experiment: NCI60 one-dose screen (10 μM), Colon Cancer; assay type: cell-based; conditions: Homo sapiens; 10 μM; HCT-15, Colon Cancer; read-out: Growth percent rate
MDA-MB-435 = experiment: NCI60 one-dose screen (10 μM), Melanoma; assay type: cell-based; conditions: Homo sapiens; 10 μM; MDA-MB-435, Melanoma; read-out: Growth percent rate
HOP-62 = experiment: NCI60 one-dose screen (10 μM), Non-small Cell Lung Cancer; assay type: cell-based; conditions: Homo sapiens; 10 μM; HOP-62, Non-small Cell Lung Cancer; read-out: Growth percent rate
A498 = experiment: NCI60 one-dose screen (10 μM), Renal Cancer; assay type: cell-based; conditions: Homo sapiens; 10 μM; A498, Renal Cancer; read-out: Growth percent rate
NCI-H322M = experiment: NCI60 one-dose screen (10 μM), Non-small Cell Lung Cancer; assay type: cell-based; conditions: Homo sapiens, 10 μM, Non-small Cell Lung Cancer, read-out: Growth percent rate
OVCAR-8 = experiment: NCI60 one-dose screen (10 μM), Ovarian Cancer; assay type: cell-based; conditions: Homo sapiens; 10 μM; OVCAR-8, Ovarian Cancer; read-out: Growth percent rate
OVCAR-4 = experiment: NCI60 one-dose screen (10 μM), Ovarian Cancer; assay type: cell-based; conditions: Homo sapiens; 10 μM; OVCAR-4, Ovarian Cancer; read-out: Growth percent rate
SF-268 = experiment: NCI60 one-dose screen (10 μM), CNS Cancer; assay type: cell-based; conditions: Homo sapiens; 10 μM; SF-268, CNS Cancer; read-out: Growth percent rate
NCI-H460 = experiment: NCI60 one-dose screen (10 μM), Non-small Cell Lung Cancer; assay type: cell-based; conditions: Homo sapiens; 10 μM; NCI-H460, Non-small Cell Lung Cancer; read-out: Growth percent rate
SK-MEL-5 = experiment: NCI60 one-dose screen (10 μM), Melanoma; assay type: cell-based, human; conditions: Homo sapiens; 10 μM; SK-MEL-5, Melanoma; read-out: Growth percent rate
SNB-19 = experiment: NCI60 one-dose screen (10 μM), CNS Cancer; assay type: cell-based; conditions: Homo sapiens; 10 μM; SNB-19, CNS Cancer; read-out: Growth percent rate
HT29 = experiment: NCI60 one-dose screen (10 μM), Colon Cancer; assay type: cell-based; conditions: Homo sapiens, HT-29; 10 μM; HT29, Colon Cancer; read-out: Growth percent rate
SF-539 = experiment: NCI60 one-dose screen (10 μM), CNS Cancer; assay type: cell-based, human; conditions: Homo sapiens; 10 μM; SF-539, CNS Cancer; read-out: Growth percent rate
CAKI-1 = experiment: NCI60 one-dose screen (10 μM), Renal Cancer; assay type: cell-based; conditions: Homo sapiens; 10 μM; CAKI-1, Renal Cancer; read-out: Growth percent rate
CCRF-CEM = experiment: NCI60 one-dose screen (10 μM), Leukemia; assay type: cell-based; conditions: Homo sapiens, 10 μM, Leukemia, read-out: Growth percent rate
ACHN = experiment: NCI60 one-dose screen (10 μM), Renal Cancer; assay type: cell-based; conditions: Homo sapiens, 10 μM, Renal Cancer, read-out: Growth percent rate
MCF7 = experiment: NCI60 one-dose screen (10 μM), Breast Cancer; assay type: cell-based; conditions: Homo sapiens; 10 μM; MCF7, Breast Cancer; read-out: Growth percent rate
MOLT-4 = experiment: NCI60 one-dose screen (10 μM), Leukemia; assay type: cell-based, human; conditions: Homo sapiens; 10 μM; MOLT-4, Leukemia; read-out: Growth percent rate
M14 = experiment: NCI60 one-dose screen (10 μM), Melanoma; assay type: cell-based; conditions: Homo sapiens; 10 μM; M14, Melanoma; read-out: Growth percent rate
SK-MEL-28 = experiment: NCI60 one-dose screen (10 μM), Melanoma; assay type: cell-based; conditions: Homo sapiens; 10 μM; SK-MEL-28, Melanoma; read-out: Growth percent rate
LOX IMVI = experiment: NCI60 one-dose screen (10 μM), Melanoma; assay type: cell-based, human; conditions: Homo sapiens; 10 μM; LOX IMVI, Melanoma; read-out: Growth percent rate
RPMI-8226 = experiment: NCI60 one-dose screen (10 μM), Leukemia; assay type: cell-based; conditions: Homo sapiens; 10 μM; RPMI-8226, Leukemia; read-out: Growth percent rate
NCI-H23 = experiment: NCI60 one-dose screen (10 μM), Non-small Cell Lung Cancer; assay type: cell-based; conditions: Homo sapiens; 10 μM; NCI-H23, Non-small Cell Lung Cancer; read-out: Growth percent rate
SW-620 = experiment: NCI60 one-dose screen (10 μM), Colon Cancer; assay type: cell-based; conditions: Homo sapiens; 10 μM; SW-620, Colon Cancer; read-out: Growth percent rate
SK-MEL-2 = experiment: NCI60 one-dose screen (10 μM), Melanoma; assay type: cell-based; conditions: Homo sapiens; 10 μM; SK-MEL-2, Melanoma; read-out: Growth percent rate

## CCC12C=CCN3CCC4(c5ccc(OC)cc5N(C)C4C(O)(C(=O)OC)C1OC(=O)CCCBr)C32 (centres unmarked) [Compound 14, 17-(O-4-bromobutanoyl)vindoline]
SF-295
  activity at 10 µM: 86.9%
COLO 205
  activity at 10 µM: 101%
RXF 393
  activity at 10 µM: 99.5%
MALME-3M
  activity at 10 µM: 101%
IGROV1
  activity at 10 µM: 100%
HL-60(TB)
  activity at 10 µM: 90.5%
[1]; 10 μM one-dose, NCI60
  antiproliferative effect (in words): a notable antiproliferative effect was not shown
[1]
  activity at 10 µM: 92.5%
A549/ATCC
  activity at 10 µM: 89.4%
786–0
  activity at 10 µM: 94.3%
K-562
  activity at 10 µM: 79.7%
U251
  activity at 10 µM: 87.2%
SNB-75
  activity at 10 µM: 92.6%
UACC-257
  activity at 10 µM: 88.4%
TK-10
  activity at 10 µM: 100%
DU-145
  activity at 10 µM: 99.6%
KM12
  activity at 10 µM: 100%
HCT-15
  activity at 10 µM: 96.8%
MDA-MB-435
  activity at 10 µM: 104%
HOP-62
  activity at 10 µM: 101%
A498
  activity at 10 µM: 90.1%
NCI-H322M
  activity at 10 µM: 101%
OVCAR-8
  activity at 10 µM: 93.4%
OVCAR-4
  activity at 10 µM: 83.9%
SF-268
  activity at 10 µM: 83.2%
NCI-H460
  activity at 10 µM: 97.8%
SK-MEL-5
  activity at 10 µM: 84.3%
SNB-19
  activity at 10 µM: 89.3%
HT29
  activity at 10 µM: 94.1%
SF-539
  activity at 10 µM: 91.9%
CAKI-1
  activity at 10 µM: 80.9%
CCRF-CEM
  activity at 10 µM: 99.8%
ACHN
  activity at 10 µM: 99.8%
MCF7
  activity at 10 µM: 80.3%
MOLT-4
  activity at 10 µM: 76.1%
M14
  activity at 10 µM: 95.7%
SK-MEL-28
  activity at 10 µM: 105%
LOX IMVI
  activity at 10 µM: 88.6%
RPMI-8226
  activity at 10 µM: 91.4%
NCI-H23
  activity at 10 µM: 93.1%
SW-620
  activity at 10 µM: 100%
SK-MEL-2
  activity at 10 µM: 103%

## CC[C@]12C=CCN3CC[C@@]4(c5ccc(OC)cc5N(C)[C@H]4[C@@](O)(C(=O)OC)[C@@H]1OC(=O)CCC(=O)N1CCN(C)CC1)[C@@H]32 [Compound 27]
SF-295
  activity at 10 µM: 97.9%
COLO 205
  activity at 10 µM: 118%
RXF 393
  activity at 10 µM: 82.3%
MALME-3M
  activity at 10 µM: 112%
IGROV1
  activity at 10 µM: 96.8%
HL-60(TB)
  activity at 10 µM: 112%
[1]
  activity at 10 µM: 99.5%
A549/ATCC
  activity at 10 µM: 94.2%
786–0
  activity at 10 µM: 99.7%
K-562
  activity at 10 µM: 124%
U251
  activity at 10 µM: 110%
SNB-75
  activity at 10 µM: 64.3%
UACC-257
  activity at 10 µM: 99.2%
TK-10
  activity at 10 µM: 91.9%
DU-145
  activity at 10 µM: 103%
KM12
  activity at 10 µM: 100%
HCT-15
  activity at 10 µM: 103%
MDA-MB-435
  activity at 10 µM: 121%
HOP-62
  activity at 10 µM: 119%
A498
  activity at 10 µM: 105%
NCI-H322M
  activity at 10 µM: 110%
OVCAR-8
  activity at 10 µM: 99.6%
OVCAR-4
  activity at 10 µM: 105%
SF-268
  activity at 10 µM: 99.5%
NCI-H460
  activity at 10 µM: 102%
SK-MEL-5
  activity at 10 µM: 91.5%
SNB-19
  activity at 10 µM: 108%
HT29
  activity at 10 µM: 96.7%
SF-539
  activity at 10 µM: 100%
CAKI-1
  activity at 10 µM: 96.6%
CCRF-CEM
  activity at 10 µM: 104%
ACHN
  activity at 10 µM: 99.2%
MCF7
  activity at 10 µM: 81%
MOLT-4
  activity at 10 µM: 100%
M14
  activity at 10 µM: 114%
SK-MEL-28
  activity at 10 µM: 94.8%
LOX IMVI
  activity at 10 µM: 93%
RPMI-8226
  activity at 10 µM: 94.5%
NCI-H23
  activity at 10 µM: 98.9%
SW-620
  activity at 10 µM: 105%
SK-MEL-2
  activity at 10 µM: 88.2%
